Biological target: RNA-directed RNA polymerase (Hepacivirus hominis, UniProt O39930)
Experiment: Inhibition of Hepatitis C virus NS5B RNA-dependent RNA polymerase
Settings: read-out: IC50

Sequence of RNA-directed RNA polymerase (O39930 whole entry): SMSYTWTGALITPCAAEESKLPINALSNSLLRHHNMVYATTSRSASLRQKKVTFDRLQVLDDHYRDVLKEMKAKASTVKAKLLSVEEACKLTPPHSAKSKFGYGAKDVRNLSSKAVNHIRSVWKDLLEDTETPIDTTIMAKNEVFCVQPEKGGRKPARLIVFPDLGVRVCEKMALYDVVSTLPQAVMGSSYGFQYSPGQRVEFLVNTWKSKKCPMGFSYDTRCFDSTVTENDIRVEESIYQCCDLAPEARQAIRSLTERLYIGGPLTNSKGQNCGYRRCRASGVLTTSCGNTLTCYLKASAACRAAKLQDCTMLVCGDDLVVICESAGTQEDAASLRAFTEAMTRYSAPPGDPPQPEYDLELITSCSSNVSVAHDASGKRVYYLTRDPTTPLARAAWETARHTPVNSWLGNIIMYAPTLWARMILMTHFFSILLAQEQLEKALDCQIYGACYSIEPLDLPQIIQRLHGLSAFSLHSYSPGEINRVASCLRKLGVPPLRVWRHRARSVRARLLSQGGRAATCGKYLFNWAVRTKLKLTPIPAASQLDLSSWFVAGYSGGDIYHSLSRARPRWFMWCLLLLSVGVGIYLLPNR

Q: With N#Cc1c(-c2ccccc2C(F)(F)F)nc(SCc2ccccc2Br)[nH]c1=O as the molecule, how does the IC50 read?
A: 21 µM

Q: Which IC50 does the source give for Cc1cccc(CSc2nc(-c3ccccc3C(F)(F)F)c(C#N)c(=O)[nH]2)c1 here?
A: 14 µM

Q: How did the IC50 turn out when COc1cc(CSc2nc(-c3ccccc3C)c(C#N)c(=O)[nH]2)cc(OC)c1 was run?
A: 25 µM

Q: With N#Cc1c(-c2ccc(Br)cc2)nc(SCc2ccccc2Br)[nH]c1=O as the molecule, how does the IC50 read?
A: 10 µM

Q: Which IC50 does the source give for Cc1ccccc1-c1nc(SCc2cccc([N+](=O)[O-])c2)[nH]c(=O)c1C#N here?
A: 37 µM

Q: Which IC50 does the source give for N#Cc1c(-c2ccc(Cl)cc2Cl)nc(SCc2ccc(OC(F)(F)F)cc2)[nH]c1=O here?
A: 11 µM

Q: With N#Cc1c(-c2ccc(Br)cc2)nc(SCC2CCCCO2)[nH]c1=O (stereo unspecified) as the molecule, how does the IC50 read?
A: 50 µM

Q: For CCCCCSc1nc(-c2ccc(Br)cc2)c(C#N)c(=O)[nH]1, which IC50 is on record?
A: 11 µM

Q: For CCCCCSc1nc(-c2ccc(F)cc2F)c(C#N)c(=O)[nH]1, which IC50 is on record?
A: 12 µM

Q: With COc1cc(CSc2nc(-c3ccc(F)cc3F)c(C#N)c(=O)[nH]2)cc(OC)c1 as the molecule, how does the IC50 read?
A: 19 µM

Q: For Cc1cccc(CSc2nc(-c3cc(Cl)cc(Cl)c3)c(C#N)c(=O)[nH]2)c1, which IC50 is on record?
A: 29 µM

Q: N#Cc1c(-c2cccc(C(F)(F)F)c2)nc(SCCC(=O)Oc2ccccc2)[nH]c1=O was tested. Which IC50 did it give?
A: 13 µM

Q: How did the IC50 turn out when CCCCCSc1nc(-c2cccc(C)c2)c(C#N)c(=O)[nH]1 was run?
A: 18 µM

Q: With COc1cc(CSc2nc(-c3ccc(Br)cc3)c(C#N)c(=O)[nH]2)cc(OC)c1 as the molecule, how does the IC50 read?
A: 13 µM

Q: For Cc1cccc(CSc2nc(-c3ccccc3C)c(C#N)c(=O)[nH]2)c1, which IC50 is on record?
A: 14 µM

Q: How did the IC50 turn out when CC(C)c1ccc(-c2nc(SCC3CCCCO3)[nH]c(=O)c2C#N)cc1 (stereo unspecified) was run?
A: 17 µM

Q: How did the IC50 turn out when N#Cc1c(-c2ccccc2C(F)(F)F)nc(SCc2ccc(OC(F)(F)F)cc2)[nH]c1=O was run?
A: 9.2 µM

Q: With Cc1cccc(CSc2nc(-c3cccc(C(F)(F)F)c3)c(C#N)c(=O)[nH]2)c1 as the molecule, how does the IC50 read?
A: 14 µM

Q: For N#Cc1c(-c2ccc(F)cc2F)nc(SCc2ccccc2Br)[nH]c1=O, which IC50 is on record?
A: 13 µM

Q: How did the IC50 turn out when CCCCCSc1nc(-c2ccc(C(C)C)cc2)c(C#N)c(=O)[nH]1 was run?
A: 12 µM

Q: Which IC50 does the source give for CC(C)c1ccc(-c2nc(SCc3ccc(OC(F)(F)F)cc3)[nH]c(=O)c2C#N)cc1 here?
A: 9.9 µM

Q: How did the IC50 turn out when COc1cc(CSc2nc(-c3cccc(C(F)(F)F)c3)c(C#N)c(=O)[nH]2)cc(OC)c1 was run?
A: 11 µM

Q: With Cc1cccc(CSc2nc(-c3cccc(C)c3)c(C#N)c(=O)[nH]2)c1 as the molecule, how does the IC50 read?
A: 22 µM

Q: For N#Cc1c(-c2ccc(Br)cc2)nc(SCc2ccc(OC(F)(F)F)cc2)[nH]c1=O, which IC50 is on record?
A: 8.7 µM

Q: CCCCCSc1nc(-c2ccc(Cl)cc2Cl)c(C#N)c(=O)[nH]1 was tested. Which IC50 did it give?
A: 17 µM

Q: Which IC50 does the source give for CC(C)c1ccc(-c2nc(SCc3ccccc3Br)[nH]c(=O)c2C#N)cc1 here?
A: 3.8 µM

Q: How did the IC50 turn out when Cc1ccccc1-c1nc(SCc2ccccc2Br)[nH]c(=O)c1C#N was run?
A: 32 µM

Q: How did the IC50 turn out when Cc1cccc(-c2nc(SCc3cccc([N+](=O)[O-])c3)[nH]c(=O)c2C#N)c1 was run?
A: 20 µM

Q: How did the IC50 turn out when COc1cc(CSc2nc(-c3cc(Cl)cc(Cl)c3)c(C#N)c(=O)[nH]2)cc(OC)c1 was run?
A: 34 µM

Q: Which IC50 does the source give for Cc1cccc(CSc2nc(-c3ccc(F)cc3F)c(C#N)c(=O)[nH]2)c1 here?
A: 57 µM

Q: With COc1cc(CSc2nc(-c3cc(F)cc(F)c3)c(C#N)c(=O)[nH]2)cc(OC)c1 as the molecule, how does the IC50 read?
A: 15 µM

Q: Cc1cccc(CSc2nc(-c3ccc(Cl)cc3Cl)c(C#N)c(=O)[nH]2)c1 was tested. Which IC50 did it give?
A: 33 µM

Q: Which IC50 does the source give for N#Cc1c(-c2ccc(Br)cc2)nc(SCc2ccccc2C(F)(F)F)[nH]c1=O here?
A: 7.1 µM

Q: Which IC50 does the source give for N#Cc1c(-c2cccc(C(F)(F)F)c2)nc(SCc2cccc([N+](=O)[O-])c2)[nH]c1=O here?
A: 13 µM

Q: Cc1cccc(-c2nc(SCc3ccc(OC(F)(F)F)cc3)[nH]c(=O)c2C#N)c1 was tested. Which IC50 did it give?
A: 8.6 µM

Q: For COc1cc(CSc2nc(-c3ccccc3C(F)(F)F)c(C#N)c(=O)[nH]2)cc(OC)c1, which IC50 is on record?
A: 12 µM

Q: How did the IC50 turn out when CCCCCSc1nc(-c2ccccc2C)c(C#N)c(=O)[nH]1 was run?
A: 18 µM

Q: For N#Cc1c(-c2ccc(Br)cc2)nc(SCCC(=O)Oc2ccccc2)[nH]c1=O, which IC50 is on record?
A: 30 µM

Q: Which IC50 does the source give for CC(C)c1ccc(-c2nc(SCc3cccc([N+](=O)[O-])c3)[nH]c(=O)c2C#N)cc1 here?
A: 10 µM

Q: CCCCCSc1nc(-c2cccc(C(F)(F)F)c2)c(C#N)c(=O)[nH]1 was tested. Which IC50 did it give?
A: 12 µM

Q: For N#Cc1c(-c2ccc(F)cc2F)nc(SCc2cccc([N+](=O)[O-])c2)[nH]c1=O, which IC50 is on record?
A: 32 µM

Q: With COc1cc(CSc2nc(-c3ccc(C(C)C)cc3)c(C#N)c(=O)[nH]2)cc(OC)c1 as the molecule, how does the IC50 read?
A: 25 µM

Q: Cc1cccc(CSc2nc(-c3cc(F)cc(F)c3)c(C#N)c(=O)[nH]2)c1 was tested. Which IC50 did it give?
A: 27 µM

Q: Cc1cccc(CSc2nc(-c3ccc(C(C)C)cc3)c(C#N)c(=O)[nH]2)c1 was tested. Which IC50 did it give?
A: 12 µM

Q: Which IC50 does the source give for Cc1cccc(CSc2nc(-c3ccc(Br)cc3)c(C#N)c(=O)[nH]2)c1 here?
A: 11 µM

Q: COc1cc(CSc2nc(-c3ccc(Cl)cc3Cl)c(C#N)c(=O)[nH]2)cc(OC)c1 was tested. Which IC50 did it give?
A: 34 µM

Q: How did the IC50 turn out when N#Cc1c(-c2ccc(Cl)cc2Cl)nc(SCCCc2ccccc2)[nH]c1=O was run?
A: 12 µM

Q: With COc1cc(CSc2nc(-c3cccc(C)c3)c(C#N)c(=O)[nH]2)cc(OC)c1 as the molecule, how does the IC50 read?
A: 30 µM

Q: With N#Cc1c(-c2ccc(Br)cc2)nc(SCc2cccc([N+](=O)[O-])c2)[nH]c1=O as the molecule, how does the IC50 read?
A: 14 µM

Q: CCCCCSc1nc(-c2ccccc2C(F)(F)F)c(C#N)c(=O)[nH]1 was tested. Which IC50 did it give?
A: 20 µM

Same assay, conditions: read-out: pIC50 (converted)

Q: With N#Cc1c(-c2ccc(Br)cc2)nc(SCc2ccccc2C(F)(F)F)[nH]c1=O as the molecule, how does the IC50 read?
A: 7.24 µM

— ChEMBL document CHEMBL3046041, “3D QSAR kNN-MFA studies on thiouracil derivatives as hepatitis C virus inhibitors” (Med Chem Res, 2011)
